Measured values as given in patent US12503436B2, “Compounds and compositions for treating conditions associated with STING activity” (NOVARTIS PHARMA AG, priority 2021, dated 2025).

target: STING (Homo sapiens, UniProt Q86WV6, G230A/H232R/R293Q/R71H); assay: STING reporter assay in THP1-Dual KO-IFNAR2 cells (2′3′cGAMP stimulation, luciferase reporter); type: cell-based; details: 15 μM 2′3′cGAMP stimulation, 24 h, read-out: Pharmaron, THP1_IFNAR2 STING 24 h Luci Normalized: GeoMean EC50
Outline: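 THP1-Dual KO-IFNAR2 cells (2×10E6 cells/mL) with compounds at 0.0017-100 μM final, stimulated with 15 μM final 2′3′cGAMP delivered by Lipofectamine 2000; 24 h at 37 °C. Luciferase in supernatant read with QUANTI-Luc Plus; EC50 derived from luminescence.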

STING, sequence (Q86WV6 whole entry R71H/G230A/H232R/R293Q): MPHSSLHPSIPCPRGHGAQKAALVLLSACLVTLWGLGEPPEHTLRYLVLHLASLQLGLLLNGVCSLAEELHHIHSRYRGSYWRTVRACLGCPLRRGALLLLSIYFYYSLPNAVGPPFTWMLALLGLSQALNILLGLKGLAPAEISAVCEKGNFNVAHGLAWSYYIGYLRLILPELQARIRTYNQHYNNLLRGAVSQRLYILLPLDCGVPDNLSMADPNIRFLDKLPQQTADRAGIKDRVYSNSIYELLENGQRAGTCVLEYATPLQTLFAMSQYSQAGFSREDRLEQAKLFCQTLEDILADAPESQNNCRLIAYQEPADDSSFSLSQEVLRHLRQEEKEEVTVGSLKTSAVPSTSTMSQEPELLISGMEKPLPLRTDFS

Compound | EC50 [µM]
CO[C@H]1C[C@@H](C(=O)Nc2c[nH]c3ccc(CCOc4ccc(C(F)(F)F)cc4)cc23)C1 [Compound 221, cis-3-methoxy-N-(5-(2-(4-(trifluoromethyl)phenoxy)ethyl)-1H-indol-3-yl)cyclobutane-1-carboxamide] | 0.04 to 0.2
CC1(C)CC(C(=O)Nc2c[nH]c3ccc(O[C@H]4C[C@@H](c5ccc(C(F)(F)F)cc5)C4)cc23)C1 [Compound 361, 3,3-dimethyl-N-(5-(cis-3-(4-(trifluoromethyl)phenyl)cyclobutoxy)-1H-indol-3-yl)cyclobutane-1-carboxamide] | 0.04 to 0.2
CO[C@H]1C[C@@](C)(C(=O)Nc2c[nH]c3ccc(OCC[C@@H]4C[C@@H]5CN(CC(F)(F)F)C[C@@H]5C4)cc23)C1 [Compound 515, (1s,3S)-3-methoxy-1-methyl-N-(5-(2-((3aR,5r,6aS)-2-(2,2,2-trifluoroethyl)octahydrocyclopenta[c]pyrrol-5-yl)ethoxy)-1H-indol-3-yl)cyclobutane-1-carboxamide] | 1 to 5
O=C(Nc1c[nH]c2ccc(OCc3ccc(C(F)(F)F)cc3)cc12)C1(C(F)(F)F)CC1 [Compound 315, 1-(trifluoromethyl)-N-(5-((4-(trifluoromethyl)benzyl)oxy)-1H-indol-3-yl)cyclopropane-1-carboxamide] | 0.2 to 1
CC(=O)Nc1c[nH]c2ccc(OCC[C@@H]3C[C@@H]4CN(CC(F)F)C[C@@H]4C3)cc12 [Compound 313, N-(5-(2-((3aR,5r,6aS)-2-(2,2-difluoroethyl)octahydrocyclopenta[c]pyrrol-5-yl)ethoxy)-1H-indol-3-yl)acetamide] | 1 to 5
O=C(Nc1c[nH]c2ccc(CCOc3ccc(C(F)(F)F)nc3)cc12)C1CC1 [Compound 167, N-(5-(2-((6-(trifluoromethyl)pyridin-3-yl)oxy)ethyl)-1H-indol-3-yl)cyclopropanecarboxamide] | 0.2 to 1
COCCOCC(=O)Nc1c[nH]c2ccc(OCC[C@@H]3C[C@@H]4CN(CC(F)(F)F)C[C@@H]4C3)cc12 [Compound 408, 2-(2-methoxyethoxy)-N-(5-(2-((3aR,5r,6aS)-2-(2,2,2-trifluoroethyl)octahydrocyclopenta[c]pyrrol-5-yl)ethoxy)-1H-indol-3-yl)acetamide] | 0.04 to 0.2
CC(=O)Nc1c[nH]c2ccc(Oc3ccc(C(F)(F)F)cn3)cc12 [Compound 116, N-(5-((5-(trifluoromethyl)pyridin-2-yl)oxy)-1H-indol-3-yl)acetamide] | 5 to 100
CC(=O)Nc1c[nH]c2ccc(OCC3Cc4cn(CC(F)(F)F)nc4C3)cc12 (centres unmarked) [Compound 447, N-(5-((2-(2,2,2-trifluoroethyl)-2,4,5,6-tetrahydrocyclopenta[c]pyrazol-5-yl)methoxy)-1H-indol-3-yl)acetamide] | 5 to 100
C[C@H]1C[C@H](C(=O)Nc2c[nH]c3ccc(OCCc4ccc(C(F)(F)F)cc4)cc23)C1 [Compound 205, trans-3-methyl-N-(5-(4-(trifluoromethyl)phenethoxy)-1H-indol-3-yl)cyclobutane-1-carboxamide] | 0.04 to 0.2
CC(=O)Nc1c[nH]c2ccc(CCC(C)(C)C3CCN(CC(F)(F)F)CC3)cc12 [Compound 275, N-(5-(3-methyl-3-(1-(2,2,2-trifluoroethyl)piperidin-4-yl)butyl)-1H-indol-3-yl)acetamide] | 1 to 5
O=C(Nc1c[nH]c2ccc(OCCc3ccc(C(F)(F)F)cc3)cc12)C1COC1 [Compound 163, N-(5-(4-(trifluoromethyl)phenethoxy)-1H-indol-3-yl)oxetane-3-carboxamide] | 0.04 to 0.2
CC(=O)Nc1c[nH]c2ccc(OCCC34CC(C(F)(F)F)(C3)C4)cc12 [Compound 474, N-(5-(2-(3-(trifluoromethyl)bicyclo[1.1.1]pentan-1-yl)ethoxy)-1H-indol-3-yl)acetamide] | 0.2 to 1
CC1(F)CC(C(=O)Nc2c[nH]c3ccc(O[C@H]4C[C@@H](c5ccc(C(F)(F)F)cc5)C4)cc23)C1 (stereo partly drawn) [Compound 356, 3-fluoro-3-methyl-N-(5-(cis-3-(4-(trifluoromethyl)phenyl)cyclobutoxy)-1H-indol-3-yl)cyclobutane-1-carboxamide] | 0.2 to 1
O=C(Nc1c[nH]c2ccc(CCOc3ccc(C(F)(F)F)cc3)cc12)[C@H]1C[C@@H](O)C1 [Compound 179, (1S,3S)-3-hydroxy-N-(5-{2-[4-(trifluoromethyl)phenoxy]ethyl}-1H-indol-3-yl)cyclobutane-1-carboxamide] | 0.2 to 1
CC(=O)Nc1c[nH]c2ccc(OC3CN(c4ccc(C(F)(F)F)cc4)C3)cc12 [Compound 233, N-(5-((1-(4-(trifluoromethyl)phenyl)azetidin-3-yl)oxy)-1H-indol-3-yl)acetamide] | 0.04 to 0.2
CC(=O)Nc1c[nH]c2c(Br)cc(CCOc3ccc(C(F)(F)F)cc3)cc12 [Compound 578, N-(7-bromo-5-(2-(4-(trifluoromethyl)phenoxy)ethyl)-1H-indol-3-yl)acetamide] | 1 to 5
CC1(C(=O)Nc2c[nH]c3ccc(O[C@H]4C[C@H](c5ccc(C(F)(F)F)cc5)C4)cc23)COC1 [Compound 148, 3-methyl-N-(5-(trans-3-(4-(trifluoromethyl)phenyl)cyclobutoxy)-1H-indol-3-yl)oxetane-3-carboxamide] | 0.2 to 1

Compound | EC50 [µM]
CC(=O)Nc1c[nH]c2ccc(CCOc3ccnc(OC(F)F)c3)cc12 [Compound 491, N-[5-(2-{[2-(difluoromethoxy)pyridin-4-yl]oxy}ethyl)-1H-indol-3-yl]acetamide] | 0.2 to 1
CC(=O)Nc1c[nH]c2ccc(CCOc3cccc(CC(F)(F)F)c3)cc12 [Compound 441, N-(5-{2-[3-(2,2,2-trifluoroethyl)phenoxy]ethyl}-1H-indol-3-yl)acetamide] | 0.04 to 0.2
CC(=O)Nc1c[nH]c2ccc(CCOc3ccccc3OCC(F)(F)F)cc12 [Compound 547, N-(5-(2-(2-(2,2,2-trifluoroethoxy)phenoxy)ethyl)-1H-indol-3-yl)acetamide] | 0.2 to 1
O=C(Nc1c[nH]c2ccc(OCc3ccc(C(F)(F)F)cc3)cc12)C1CC(CO)C1 (centres unmarked) [Compound 153, 3-(hydroxymethyl)-N-(5-((4-(trifluoromethyl)benzyl)oxy)-1H-indol-3-yl)cyclobutane-1-carboxamide] | 0.2 to 1
O=C(Nc1c[nH]c2ccc(CCOc3ccc(C(F)(F)F)cc3)cc12)C1(C(F)(F)F)CC1 [Compound 387, 1-(trifluoromethyl)-N-(5-(2-(4-(trifluoromethyl)phenoxy)ethyl)-1H-indol-3-yl)cyclopropane-1-carboxamide] | 0.2 to 1
O=C(Nc1c[nH]c2ccc(COCc3ccc(C(F)(F)F)cc3)cc12)C1CCC1 [Compound 109, N-(5-(((4-(trifluoromethyl)benzyl)oxy)methyl)-1H-indol-3-yl)cyclobutanecarboxamide] | 0.04 to 0.2
O=C(Nc1c[nH]c2ccc(OCc3ccc(C(F)(F)F)cc3)cc12)C1COC1 [Compound 381, N-(5-((4-(trifluoromethyl)benzyl)oxy)-1H-indol-3-yl)oxetane-3-carboxamide] | 0.2 to 1
CC(=O)Nc1c[nH]c2ccc(OCCc3ccc(C(F)(F)F)cc3)c(Br)c12 [Compound 350, N-(4-bromo-5-(4-(trifluoromethyl)phenethoxy)-1H-indol-3-yl)acetamide] | 1 to 5
CC1(C(=O)Nc2c[nH]c3ccc(OCC[C@@H]4C[C@@H]5CN(CC(F)(F)F)C[C@@H]5C4)cc23)CCOC1 (stereo partly drawn) [Compound 306, 3-methyl-N-(5-(2-((3aR,5r,6aS)-2-(2,2,2-trifluoroethyl)octahydrocyclopenta[c]pyrrol-5-yl)ethoxy)-1H-indol-3-yl)tetrahydrofuran-3-carboxamide] | 0.2 to 1
CC(=O)Nc1c[nH]c2ccc(CCOc3cccc(CC#N)c3)cc12 [Compound 453, N-(5-{2-[3-(cyanomethyl)phenoxy]ethyl}-1H-indol-3-yl)acetamide] | 1 to 5
CC(C)(O)CC(=O)Nc1c[nH]c2ccc(OCC[C@@H]3C[C@@H]4CN(CC(F)(F)F)C[C@@H]4C3)cc12 [Compound 523, 3-hydroxy-3-methyl-N-(5-(2-((3aR,5r,6aS)-2-(2,2,2-trifluoroethyl)octahydrocyclopenta[c]pyrrol-5-yl)ethoxy)-1H-indol-3-yl)butanamide] | 0.2 to 1
CC1(C(=O)Nc2c[nH]c3ccc(CCOc4ccc(C(F)(F)F)cc4)cc23)CCOC1 (centres unmarked) [Compound 178, 3-methyl-N-(5-(2-(4-(trifluoromethyl)phenoxy)ethyl)-1H-indol-3-yl)tetrahydrofuran-3-carboxamide] | 0.2 to 1
COCC1(C(=O)Nc2c[nH]c3ccc(OCC[C@@H]4C[C@@H]5CN(CC(F)(F)F)C[C@@H]5C4)cc23)CC1 [Compound 305, 1-(methoxymethyl)-N-(5-(2-((3aR,5r,6aS)-2-(2,2,2-trifluoroethyl)octahydrocyclopenta[c]pyrrol-5-yl)ethoxy)-1H-indol-3-yl)cyclopropane-1-carboxamide] | 1 to 5
C[C@]1(C(=O)Nc2c[nH]c3ccc(O[C@H]4C[C@H](c5ccc(C(F)(F)F)cc5)C4)cc23)CC[C@@H](O)CC1 (single isomer, unassigned) [Compound 426, cis-4-hydroxy-1-methyl-N-(5-(trans-3-(4-(trifluoromethyl)phenyl)cyclobutoxy)-1H-indol-3-yl)cyclohexane-1-carboxamide] | 0.04 to 0.2
CC(=O)Nc1c[nH]c2ccc(CCOC3CCN(CC(F)(F)F)CC3)cc12 [Compound 288, N-(5-(2-((1-(2,2,2-trifluoroethyl)piperidin-4-yl)oxy)ethyl)-1H-indol-3-yl)acetamide] | 5 to 100
C=CCc1ccccc1OCCc1ccc2[nH]cc(NC(C)=O)c2c1 [Compound 548, N-(5-(2-(2-allylphenoxy)ethyl)-1H-indol-3-yl)acetamide] | 0.2 to 1
N#C[C@H]1C[C@@H]1C(=O)Nc1c[nH]c2ccc(CCOc3ccc(C(F)(F)F)cc3)cc12 [Compound 391, (1S,2S)-2-cyano-N-(5-(2-(4-(trifluoromethyl)phenoxy)ethyl)-1H-indol-3-yl)cyclopropane-1-carboxamide] | 0.04 to 0.2
